Results on three compounds are retold here after patent US20230172928A1 (priority 2020, published 2023).

Where “and” joins values, the source holds several entries; their conditions need not be identical. Identical values can stand only once. Like-named read-outs stand apart in the source and are kept apart here.

In one data set the test system is HCC2279 cells. Nature of the data set: Cell proliferation / combination dose matrix assay (CellTiter-Glo). It counts as cell-based. The conditions noted are these: Homo sapiens; HCC2279, EGFR ex19del. The protocol:
(§1) Human cancer cell lines originated from the CCLE (Cancer Cell Line Encyclopedia) authenticated by single-nucleotide polymorphism analysis and tested for mycoplasma infection using a PCR-based detection technology (IDEXX BioAnalytics) when CCLE was established in 2012. All cell lines used were directly thawed from the CCLE collection stock. All cell lines were cultured in RPMI Medium (ThermoFisher Scientific) except HT-29 (McCoy's 5A), RKO (MEMα), MDST8 (DMEM), A-427 (MEMα) and MIA PaCA-2 (DMEM), supplemented with 10% FBS (VWR). Cell lines were used within 15 passages of thawing and continuously cultured for less than 6 months.
(§2) For combination dose matrix assay, 2000 to 3000 cells were seeded in 96-well plates in 80 μL media per well. On the second day, serial dilutions of the two combination agents were subsequently added, each in 20 μL media at 6× of final indicated concentrations. 3 days later, cell viability was measured by the CellTiter-Glo Assay (Promega #G7573). The mean and standard deviation (n=3) of percentages of inhibition (relative to the DMSO-treated control) of compound-treated cells and synergy scores between the two compounds were determined. Synergy scores greater than 2 are considered to have synergistic rather than additive effects.
(§3) Statistical analyses were performed and curve fit and IC50 values were generated using GraphPad Prism 8 software. Statistical significance was determined using unpaired, paired student t test, or Mann-Whitney test. Significance was set at p=0.05.
(In ATP-based viability assays light output follows the ATP content of the culture.)

The next data set has as its system NCI-H1650 cells. The data set is described as above. It counts as cell-based. The conditions noted are these: Homo sapiens; NCI-H1650, EGFR ex19del. The protocol:
as §1, §2, §3

Another data set relates to HCC4006 cells. Described as above. The conditions noted are these: Homo sapiens; HCC4006, EGFR ex19del. It counts as cell-based. The procedure:
as §1, §2, §3

For data set [1] the following is noted: mice.
In data set [2] the test system is EGFR-dependent DETROIT-562 cancer cell line. Nature of the data set: In vivo SHP2 inhibition and efficacy, DETROIT-562 model. The conditions noted are these: orally-administered, 20 mg/kg.
The test system of the next data set is NCI-H1975 cells. Nature of the data set: Cell proliferation / combination dose matrix assay (CellTiter-Glo). It counts as cell-based, human. The conditions noted are these: for IC50: Homo sapiens, NCI-H1975, EGFR L858R/T790M. The procedure:
(§4) Human cancer cell lines originated from the CCLE (Cancer Cell Line Encyclopedia) authenticated by single-nucleotide polymorphism analysis and tested for mycoplasma infection using a PCR-based detection technology (IDEXX BioAnalytics) when CCLE was established in 2012. All cell lines used were directly thawed from the CCLE collection stock. All cell lines were cultured in RPMI Medium (ThermoFisher Scientific) except HT-29 (McCoy's 5A), RKO (MEMα), MDST8 (DMEM), A-427 (MEMα) and MIA PaCA-2 (DMEM), supplemented with 10% FBS (VWR). Cell lines were used within 15 passages of thawing and continuously cultured for less than 6 months. For combination dose matrix assay, 2000 to 3000 cells were seeded in 96-well plates in 80 μL media per well. On the second day, serial dilutions of the two combination agents were subsequently added, each in 20 μL media at 6× of final indicated concentrations. 3 days later, cell viability was measured by the CellTiter-Glo Assay (Promega #G7573). The mean and standard deviation (n=3) of percentages of inhibition (relative to the DMSO-treated control) of compound-treated cells and synergy scores between the two compounds were determined. […] Statistical analyses were performed and curve fit and IC50 values were generated using GraphPad Prism 8 software. Statistical significance was determined using unpaired, paired student t test, or Mann-Whitney test. Significance was set at p=0.05. […] After 3 days (PC14) or 6 days (NCI-H1975), cell proliferation was measured using the Cell Titer-Glo® assay and luminescent signals of each dose combination were normalized to that of the DMSO (vehicle control) group.

For data set [3], the system named is PC14 cells. The description is as above. Format: cell-based, human. The conditions noted are these: for IC50: Homo sapiens, PC-14, PC14, EGFR ex19del. The protocol:
as §4

Data set [4] has as its system DETROIT-562 (pharyngeal squamous cell carcinoma) cells. Nature of the data set: in vitro antiproliferation. It counts as cell-based. The conditions noted are these: Homo sapiens.
Data set [5] can be described thus: TNO155 regimens tested in patients. Format: in vivo, human. The conditions noted are these: 60 mg QD 2 weeks on/1 week off and 40 mg QD 3 weeks on/1 week off. The protocol:
(§5) The starting dose of nazartinib in this study is 150 mg QD, dosed continuously. In CEGF816X2101, the first-in-human study of nazartinib, doses of nazartinib from 75 mg daily to 350 mg daily were investigated. […] Thus the starting dose of 20 mg QD, 2 weeks on/1 week off provides an adequate tolerability margin for combination with nazartinib 150 mg QD.

Another data set concerns PC9 cells. Nature of the data set: Cell proliferation / combination dose matrix assay (CellTiter-Glo). It counts as cell-based, human. The procedure: as §1, §2, §3
For data set [6], the system named is EGFR L858R model 29665HXXTM. The conditions noted are these: osimertinib 10 mpk daily, TNO155 10 mpk BID.
The subject of data set [7] is PC14 cells. Nature of the data set: Immunoblot of PC14 cell lysates (p-ERK, c-PARP, BIM). Format: cell-based, human. The conditions noted are these: nazartinib 0.1 or 0.3 μM, 3 μM TNO155 or combination, 4 h or 24 h. The procedure: For immunoblotting: Cells (200,000 to 750,000) in 2 mL growth media were seeded in 6-well plates (Corning, #3506). After 24 hours, cells were treated with compounds or growth factors at the indicated concentrations and duration. Cells were lysed on ice in RIPA buffer (Boston Bioproduct #BP-115) supplemented with 1 mM EDTA and Halt Protease and Phosphatase Inhibitor Cocktail (Thermo Fisher Scientific #1861281). Lysates were centrifuged at 14,000 rpm at 4° C. for 15 minutes and protein concentrations were determined using BCA protein assay (Thermo Fisher Scientific). […] The bound primary antibodies were visualized using Goat anti-rabbit IgG secondary antibody conjugated with Alexa Fluor 700 and goat anti-mouse IgG secondary antibody conjugated with IRDye 800 CW and scanning with an Odyssey Infrared Imager System (Li-Cor). […]
On the technique in general: In western blotting, separated proteins are transferred to a membrane and probed.

In data set [8] the test system is EGFR L858R model 29666HXXTM. The conditions noted are these: osimertinib 10 mpk daily, TNO155 10 mpk BID.
Data set [9] deals with KYSE-520 (esophageal squamous cell carcinoma) cells. Nature of the data set: in vitro antiproliferation. Format: cell-based. The conditions noted are these: Homo sapiens.
Data set [10] has as its system pERK in DETROIT-562 (pharyngeal squamous cell carcinoma) cells. Nature of the data set: in vitro pERK inhibition. The conditions noted are these: Homo sapiens. It counts as cell-based.
Another data set deals with CYP3A4 (Homo sapiens, UniProt P08684). Nature of the data set: CYP3A4 interaction / metabolism.
CYP3A4, sequence (P08684 whole entry): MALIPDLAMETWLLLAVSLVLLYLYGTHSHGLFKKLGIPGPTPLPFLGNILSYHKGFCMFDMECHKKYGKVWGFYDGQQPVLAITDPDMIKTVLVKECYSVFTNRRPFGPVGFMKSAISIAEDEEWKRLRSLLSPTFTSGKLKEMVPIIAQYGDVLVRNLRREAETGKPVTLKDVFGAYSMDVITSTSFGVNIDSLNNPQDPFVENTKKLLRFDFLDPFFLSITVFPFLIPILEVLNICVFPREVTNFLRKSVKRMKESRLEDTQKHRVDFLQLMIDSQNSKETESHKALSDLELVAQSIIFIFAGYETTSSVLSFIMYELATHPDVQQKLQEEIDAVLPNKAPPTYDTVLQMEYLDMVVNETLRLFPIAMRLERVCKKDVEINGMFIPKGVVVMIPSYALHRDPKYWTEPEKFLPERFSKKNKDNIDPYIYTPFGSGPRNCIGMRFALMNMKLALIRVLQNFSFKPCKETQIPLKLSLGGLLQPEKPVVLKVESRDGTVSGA
The test system of data set [11] is pERK in KYSE-520 (esophageal squamous cell carcinoma) cells. Nature of the data set: in vitro pERK inhibition. Format: cell-based. The conditions noted are these: Homo sapiens.
Data set [12] relates to EGFR L858R model 29667HXXTM. The conditions noted are these: osimertinib 10 mpk daily, TNO155 10 mpk BID.
In a further data set the test system is NCI-H3255 cells. Nature of the data set: Cell proliferation / combination dose matrix assay (CellTiter-Glo). The conditions noted are these: Homo sapiens, NCI-H3255, NCI-H3255, EGFR L858R. Format: cell-based. The procedure: as §1, §2, §3
Data set [13] is described as follows: Adverse events of decreased left ventricular ejection fraction. Also noted: species or system human. The conditions noted are these: in vivo. The source says: Patients with EGFR-mutant NSCLC have a high disease control rate with EGFR inhibitors (e.g., erlotinib, gefitinib, osimertinib), but resistance invariably develops. Resistance mechanisms are heterogeneous, but commonly result in restoration of mutant EGFR signaling and/or amplification or overexpression of RTKs other than EGFR (such as MET) or of their ligands.

Data set [14] has as its system patients with EGFRmutated NSCLC. Nature of the data set: First-in-human study of nazartinib (CEGF816X2101). It counts as in vivo. The conditions noted are these: 75 mg to 350 mg QD. The procedure:
Nazartinib has been studied in 7 clinical trials.
as §5

Another data set has as its system HCC827 cells. Nature of the data set: Cell proliferation / combination dose matrix assay (CellTiter-Glo). It counts as cell-based. The conditions noted are these: Homo sapiens, HCC827, HCC827, EGFR ex19del.
The conditions of data set [15]: Tagrisso prescribing information; cited from earlier work.
Setting [16] is: Homo sapiens, PC-9, PC9, EGFR ex19del.

Source text for HCC827 cells: Human cancer cell lines originated from the CCLE (Cancer Cell Line Encyclopedia) authenticated by single-nucleotide polymorphism analysis and tested for mycoplasma infection using a PCR-based detection technology (IDEXX BioAnalytics) when CCLE was established in 2012. All cell lines used were directly thawed from the CCLE collection stock. […] Cell lines were used within 15 passages of thawing and continuously cultured for less than 6 months.

For orientation: IC50 means the concentration that inhibits the measured activity by half. Regarding `C[C@@H]1OCC2(CCN(c3cnc(Sc4ccnc(N)c4Cl)c(N)n3)CC2)[C@@H]1N` [TNO155, (3S,4S)-8-(6-amino-5-((2-amino-3-chloropyridin-4-yl)thio)pyrazin-2-yl)-3-methyl-2-oxa-8-azaspiro[4.5]decan-4-amine], the IC50 with HCC2279 cells is greater than 10000 nM; in the data set on NCI-H1650 cells, greater than 10000 nM; in the data set on HCC4006 cells, greater than 10000 nM; in the data set on NCI-H1975 cells it was greater than 10000 nM; in the data set with PC14 cells [3], 5010 nM; in [4] it was 470 nM. For the same compound, the IC50 in the data set on PC9 cells (setting [16]) is less than 1500 nM; with PC9 cells (PC9, EGFR ex19del), 1460 nM; in data set [9], 100 nM; in data set [10] it was 35 nM; in data set [11], 8 nM and 0.0034 µg/mL. Also, the half-life result in data set [1] is recorded as “short half-life”. Besides, in [1] (twice a day (BID)), the maximum tolerated dose is on record as 20 mg per kilogram body weight (mpk). The “decrease in DUSP6 mRNA transcript” value in data set [2] was “approximately 95%”. Further, the regression in [2] (twice-daily schedule) came out at 47%. Besides, the single agent activity entry in the data set on NCI-H1975 cells (NCI-H1975, low concentrations, e.g. 0.124 μM) is listed as “lacks single agent activity”; with PC14 cells [3] (PC14, low concentrations, e.g. 0.124 μM), “lacks single agent activity”. For the same compound, in data set [5], the tolerability entry is recorded as “tolerated”. Also, the “anti-tumor activity (tumor volume)” value in [6] is “minimal activity”; in data set [8], “effectively slowed down the tumor growth”; in data set [12] it was “minimal activity”. The p-ERK levels result in the data set with PC14 cells [7] is listed as “effectively reduced p-ERK levels at 4 h but also suffered a rebound at 24 h”. Moreover, the “CYP3A4 induction / inhibition” value on CYP3A4 (human) is “neither an inducer nor inhibitor of CYP3A4”.

Turning to `Cc1cc(C(=O)Nc2nc3cccc(Cl)c3n2[C@@H]2CCCCN(C(=O)/C=C/CN(C)C)C2)ccn1` [Nazartinib, (R,E)-N-(7-chloro-1-(1-(4-(dimethylamino)but-2-enoyl)azepan-3-yl)-1H-benzo[d]imidazol-2-yl)-2-methylisonicotinamide], the half-inhibitory concentration (IC50) was greater than 3000 nM in the data set on HCC2279 cells; greater than 3000 nM in the data set with NCI-H1650 cells; 10 nM in the data set on NCI-H3255 cells; 60 nM with HCC4006 cells; 170 nM in the data set with NCI-H1975 cells; 50 nM in the data set with PC14 cells [3]. For the same compound, the IC50 in the data set with PC9 cells (setting [16]) turned out to be 10 nM; with HCC827 cells, 40 nM. For the same compound, the “adverse events of decreased left ventricular ejection fraction” value in [13] is “not associated with adverse events of decreased left ventricular ejection fraction”. Further, in [14], the anti-tumor efficacy entry is “anti-tumor efficacy was observed at all doses”. Further, the maximum tolerated dose entry in data set [14] is given as “not established”. Also, the p-ERK levels entry in the data set on PC14 cells [7] is listed as “rebound of p-ERK levels was observed after 24 h”. Further, the metabolism result on CYP3A4 was “primarily metabolized by CYP3A4”.

For the compound `C=CC(=O)Nc1cc(Nc2nccc(-c3cn(C)c4ccccc34)n2)c(OC)cc1N(C)CCN(C)C` [osimertinib, reference compound], the figures for the “anti-tumor activity (tumor volume)” value in data set [6], in data set [8] and in data set [12] were “strong”, “only transient efficacy” and “modest”, respectively. The “adverse events of decreased left ventricular ejection fraction” value in data set [15] is recorded as “Such events have been described”.
